System: colonies of epithelial cells of head and neck squamous carcinoma
Experiment: ex vivo colony formation assay of collagenase-digested tumor samples, epithelial colonies counted after cytokeratin staining
Format: cell-based, human
Details: for Range from / Range to: concentrations with log-linear relation to response; for Range from / Range to / Cut-off concentrations Sample 1 / Cut-off concentrations Sample 2 / Cut-off concentrations Sample 3 / IC50 Sample 1 / IC50 Sample 2 / IC50 Sample 3: docetaxel (TPL = 0.55 µmol/l), 72 h
Method: Thereafter the tumors which usually have a size of about 0.1 to 1 ml were mechanically disintegrated by mincing to tissue pats of about 0.1 to 10 mm^3 and immersed each in 30 ml of pre-warmed riboflavin-free RPMI 1640 medium without phenol red and containing 14.5 mmol/l HEPES, 13.5 mmol/l NaHCO3, stabilized glutamine, 10% (v/v) fetal calf serum, the antibiotics penicillin, streptomycin and amikacin, as well as the antimycotic nystatin. The tumor cells were always handled at room temperature or warmer and never exposed to light other than the light of a sodium discharge lamp with an emission wavelength of 589 nm. Immediately after mechanical disintegration 120 U/ml collagenase type IV of Clostridium histolyticum (EC 3.4.24.3, type IV) were added and the mixture incubated for 16 h at 36.5°C in brown glass bottles in an incubator. To ensure optimal incubation conditions, the CO2 concentration therein was constantly kept at 3.5% and relative humidity at 95%. Following enzymatic disintegration by collagenase the digest was centrifuged for 10 min at 1200 rpm, the resulting pellets were carefully re-suspended in fresh culture medium supplemented as described but without collagenase. […] Ex-vivo testing was performed 72 h using the same culture conditions as during the collagenase digest.
After 72 hours of incubation, the wells were rinsed twice with phosphate buffered saline, pH 7.8, and the adherent cells and cell colonies were fixed with ice-cold 90% methanol for 10 min. Fixed specimens were exposed for 5 min to PBS/ 0.1% Tween-20® (Polysorbate 20) before preincubation with 1% serum in PBS/ 0.1% Tween-20 for 45 min, followed by overnight incubation at 4°C with the primary antibody (anti-cytokeratin; SantaCruz sc-8018, C11) diluted 1:400 in PBS/ 0.1% Tween-20 supplemented with 0.2 % serum. After three rinses for 10 min each with PBS/ 0.2 % Serum/ 0.1% Tween-20, specimens were incubated for another 2 h at room temperature in the dark with the secondary antibody (anti-mouse IgG coupled with Cy2 or Cy3 fluorescence dye, Jackson ImmunoResearch, Cambs, UK) in a 1:400 dilution in PBS/ 0.2 % Serum/ 0.1 % Tween-20 followed by three rinses with PBS/ 0.2 % Serum/ 0.1 % Tween-20, and a final rinse with distilled water for 2 min. The test plate was air dried, and fluorescence signals were imaged with the Zeiss Axiovert 200M inverted fluorescence microscope (Zeiss, Jena, Germany) using Zeiss filter sets 44 and 43HE for Cy2 and Cy3, respectively. The evaluation of the colonies is possible using every given fluorescence microscope but is eased by the use of dedicated filter sets. […] The test is utilized by separately counting of colonies of different types (stained epithelial, unstained stromal cells), the numbers of colonies in the different treatments (e.g. doses of radiation or concentrations of chemotherapeutics) are recorded and kept for further analysis.
Freshly resected probes of head and neck squamous carcinoma of 14 untreated patients were investigated and treated if not stated otherwise as described in example 1. Three fragments were each excised from different tumor areas, weighed, and treated with collagenase as outlined in Example 1.
1.5 mg of tumor was applied to a well.
Freshly resected probes of head and neck squamous carcinoma of 14 untreated patients were investigated and treated if not stated otherwise as described in example 1. Three fragments were each excised from different tumor areas, weighed, and treated with collagenase as outlined in Example 1. Collagenase digests were exposed to concentrations in the range from 0.5- to 32-fold the tolerated plasma levels (TPL) of docetaxel: (TPL = 0.55 µmol/l).

CC(=O)O[C@@]12CO[C@@H]1C[C@H](O)[C@@]1(C)C(=O)[C@H](O)C3=C(C)[C@@H](OC(=O)[C@H](O)[C@@H](NC(=O)OC(C)(C)C)c4ccccc4)C[C@@](O)([C@@H](OC(=O)c4ccccc4)[C@H]21)C3(C)C [docetaxel]
Range from (Tumor-No. 1): 2.0 n-fold TPL
Range to (Tumor-No. 1): 8.0 n-fold TPL
Range from (Tumor-No. 2): 0.5 n-fold TPL
Range to (Tumor-No. 2): 32.0 n-fold TPL
Range from (Tumor-No. 3): 2.0 n-fold TPL
Range to (Tumor-No. 3): 32.0 n-fold TPL
Range from (Tumor-No. 4): 4.0 n-fold TPL
Range to (Tumor-No. 4): 32.0 n-fold TPL
Range from (Tumor-No. 5): 0.5 n-fold TPL
Range to (Tumor-No. 5): 32.0 n-fold TPL
Range from (Tumor-No. 6): 2.0 n-fold TPL
Range to (Tumor-No. 6): 32.0 n-fold TPL
Range from (Tumor-No. 7): 2.0 n-fold TPL
Range to (Tumor-No. 7): 32.0 n-fold TPL
Range from (Tumor-No. 8): 1.0 n-fold TPL
Range to (Tumor-No. 8): 32.0 n-fold TPL
Range from (Tumor-No. 9): 0.5 n-fold TPL
Range to (Tumor-No. 9): 32.0 n-fold TPL
effect on number of epithelial colonies at low concentrations (concentrations ≤ TPL, seven tumors (No. 2, 3, 4, 5, 6, 8 and 9)): hormesis
Cut-off concentrations Sample 1 (Tumor-No. 1): 8 n-fold TPL
Cut-off concentrations Sample 2 (Tumor-No. 1): 8 n-fold TPL
Cut-off concentrations Sample 3 (Tumor-No. 1): 8 n-fold TPL
IC50 Sample 1 (Tumor-No. 1): 4.565 n-fold TPL
IC50 Sample 2 (Tumor-No. 1): 4.718 n-fold TPL
IC50 Sample 3 (Tumor-No. 1): 5.040 n-fold TPL
Cut-off concentrations Sample 1 (Tumor-No. 2): X (not more than 5 colonies at most have appeared at the highest dose rate)
Cut-off concentrations Sample 2 (Tumor-No. 2): X (not more than 5 colonies at most have appeared at the highest dose rate)
Cut-off concentrations Sample 3 (Tumor-No. 2): X (not more than 5 colonies at most have appeared at the highest dose rate)
IC50 Sample 1 (Tumor-No. 2): 1.486 n-fold TPL
IC50 Sample 2 (Tumor-No. 2): 0.579 n-fold TPL
IC50 Sample 3 (Tumor-No. 2): 1.157 n-fold TPL
Cut-off concentrations Sample 1 (Tumor-No. 3): X (not more than 5 colonies at most have appeared at the highest dose rate)
Cut-off concentrations Sample 2 (Tumor-No. 3): X (not more than 5 colonies at most have appeared at the highest dose rate)
Cut-off concentrations Sample 3 (Tumor-No. 3): X (not more than 5 colonies at most have appeared at the highest dose rate)
IC50 Sample 1 (Tumor-No. 3): 16.404 n-fold TPL
IC50 Sample 2 (Tumor-No. 3): 10.711 n-fold TPL
IC50 Sample 3 (Tumor-No. 3): 19.173 n-fold TPL
Cut-off concentrations Sample 1 (Tumor-No. 4): XX (more than 5 colonies have appeared at the highest dose rate)
Cut-off concentrations Sample 2 (Tumor-No. 4): X (not more than 5 colonies at most have appeared at the highest dose rate)
Cut-off concentrations Sample 3 (Tumor-No. 4): XX (more than 5 colonies have appeared at the highest dose rate)
IC50 Sample 1 (Tumor-No. 4): 27.819 n-fold TPL
IC50 Sample 3 (Tumor-No. 4): 23.393 n-fold TPL
Cut-off concentrations Sample 1 (Tumor-No. 5): X (not more than 5 colonies at most have appeared at the highest dose rate)
Cut-off concentrations Sample 2 (Tumor-No. 5): XX (more than 5 colonies have appeared at the highest dose rate)
Cut-off concentrations Sample 3 (Tumor-No. 5): X (not more than 5 colonies at most have appeared at the highest dose rate)
IC50 Sample 1 (Tumor-No. 5): 3.891 n-fold TPL
IC50 Sample 3 (Tumor-No. 5): 9.987 n-fold TPL
Cut-off concentrations Sample 1 (Tumor-No. 6): X (not more than 5 colonies at most have appeared at the highest dose rate)
Cut-off concentrations Sample 2 (Tumor-No. 6): X (not more than 5 colonies at most have appeared at the highest dose rate)
Cut-off concentrations Sample 3 (Tumor-No. 6): X (not more than 5 colonies at most have appeared at the highest dose rate)
IC50 Sample 1 (Tumor-No. 6): 8.208 n-fold TPL
IC50 Sample 2 (Tumor-No. 6): 6.690 n-fold TPL
IC50 Sample 3 (Tumor-No. 6): 8.404 n-fold TPL
Cut-off concentrations Sample 1 (Tumor-No. 7): 32 n-fold TPL
Cut-off concentrations Sample 2 (Tumor-No. 7): 32 n-fold TPL
Cut-off concentrations Sample 3 (Tumor-No. 7): 32 n-fold TPL
IC50 Sample 1 (Tumor-No. 7): 3.616 n-fold TPL
IC50 Sample 2 (Tumor-No. 7): 3.629 n-fold TPL
IC50 Sample 3 (Tumor-No. 7): 2.692 n-fold TPL
Cut-off concentrations Sample 1 (Tumor-No. 8): 32 n-fold TPL
Cut-off concentrations Sample 2 (Tumor-No. 8): 32 n-fold TPL
Cut-off concentrations Sample 3 (Tumor-No. 8): X (not more than 5 colonies at most have appeared at the highest dose rate)
IC50 Sample 1 (Tumor-No. 8): 6.709 n-fold TPL
IC50 Sample 3 (Tumor-No. 8): 5.282 n-fold TPL
Cut-off concentrations Sample 1 (Tumor-No. 9): X (not more than 5 colonies at most have appeared at the highest dose rate)
Cut-off concentrations Sample 2 (Tumor-No. 9): X (not more than 5 colonies at most have appeared at the highest dose rate)
Cut-off concentrations Sample 3 (Tumor-No. 9): X (not more than 5 colonies at most have appeared at the highest dose rate)
IC50 Sample 1 (Tumor-No. 9): 6.964 n-fold TPL
IC50 Sample 2 (Tumor-No. 9): 7.495 n-fold TPL
